Laboratory results as given in patent publication US20110190389A1, “OXYLIPINS FROM LONG CHAIN POLYUNSATURATED FATTY ACIDS AND METHODS OF MAKING AND USING THE SAME” (priority 2007, published 2011).

How the values were obtained:
[1] = tested on: total cell migration into air pouch exudates; assay: Mouse dorsal air pouch model: total cell migration into exudates; type: in vivo, C57/B16 mice; settings: 100 ng docosanoid intra-pouch; for total number of cells in the pouch: 100 ng TNFα, 4 hours
Description: (§1) Pure 17R-hydroxy DHA (17R-HDHA) was purchased from Caymen Chemicals (Ann Arbor, Mich.). Docosanoids 17-hydroxy-DPAn-6 (17-HDPAn-6) and 10,17-dihydroxyDPAn-6 (10,17-HDPAn-6) were synthesized biogenically from DPAn-6 (NuChek Prep, Elysian, Minn.) using soybean 15-lipoxygenase (Sigma-Aldrich) and purified by HPLC as described in Example 2. Organic solvents were evaporated and the compounds were re-dissolved in phosphate buffered saline (PBS), filter sterilized and concentrations were adjusted to 1000 ng/ml using molar extinction coefficients of 28,000 and 40,000 M^−1 cm^−1 for the mono- and dihydroxy docosanoids, respectively. Female C57/B16 mice (n=10 mice per group) were injected with sterile air subcutaneously in the back to initiate dorsal air pouches. Six days later, 0.9 ml sterile PBS followed by 100 ng docosanoid in 0.1 ml PBS or PBS alone were administered by intra-pouch injection. This injection was followed within 5 min by intra-pouch injection of 100 ng of mouse recombinant TNFα (Peprotech, Inc, NJ, USA) in 0.1 ml PBS. Control animals received no TNFα. As a positive control, 2 mg/kg indomethacin (Calbiochem, San Diego, Calif.) was administered intraperitoneally 30 min prior to administration of TNFα. Four hours after TNFα administration, air pouch exudates were removed and cells were stained with Turk's solution and counted. Exudates were frozen for later cytokine analyses using commercial ELISA kits. Bars represent group (n=10) means (±stdev). Groups were compared using Student's t test, with p values indicated.

IL-1β = assay: Mouse dorsal air pouch model: IL-1β in exudates; type: in vivo, C57/B16 mice; settings: 100 ng docosanoid intra-pouch; for secretion of IL-1β in air pouch exudates: 100 ng TNFα, 4 hours
Description: as §1

[2] = tested on: macrophage chemotactic protein-1 (MCP-1); assay: Mouse dorsal air pouch model: MCP-1 in exudates; type: in vivo, C57/B16 mice; settings: 100 ng docosanoid intra-pouch; for secretion of MCP-1 in air pouch exudates: 100 ng TNFα, 4 hours; for inhibition of MCP-1 secretion versus indomethacin: indomethacin 2 mg/kg i.p.
Description: as §1

human T lymphocytes = assay: TNFα secretion by human T lymphocytes stimulated with anti-CD3/anti-CD28 antibodies; type: cell-based; settings: 6 hrs pretreatment, 41 hrs on anti-CD3/anti-CD28; difference p=0.037 at 10 nM
Experimental: FIG. 22A: Effect of Docosanoids on TNFα Secretion by Human T Lymphocytes. The assay was performed essentially as described in Ariel et al, 2005. Briefly, human peripheral blood mononuclear cells were isolated from venous blood by Ficoll-Paque™ Plus (Amersham biosciences) gradient. T lymphocytes were isolated using a human T cell enrichment column (R&D Systems) per manufacturer's instructions. Purified T cells were treated with 10,17-dihydroxy DPAn-6 or 10,17-dihydroxy DHA or vehicle (0.05% ethanol) in RPMI-1640 media containing 10% heat inactivated fetal bovine serum for 6 hrs at 37° C. Lymphocytes (200,000 cells in 200 μl media per well) were then transferred to 96-well plates coated with both anti-CD3 antibody and anti-CD28 antibody (100 μl of 2 μg/ml of each antibody overnight to coat wells) and incubated for 41 hrs. TNFα concentrations were determined in cell supernatants by ELISA (R&D Systems). Group means±stdev (n=4) were compared by Student's t test. *p<0.05 and **p<0.01 compared to control; # indicates statistical difference (p=0.037) between the groups treated with 10,17-dihydroxy DPAn-6 and 10,17-dihydroxy DHA at the 10 nM concentrations.

hind paw edema = assay: Carrageenan-induced rat paw edema after feeding LCPUFA diets; type: in vivo, Sprague Dawley rats; settings: diet 4 weeks, 1% carrageenan, 3 hours post-injection, Day 28
Experimental: Adult, male, Sprague Dawley rats (n=10/treatment group) were fed modified AlN-76 diets formulated to include 1.2% DHA, 1.2% DHA+0.44% DPAn-6, or 1.2% DHA+0.46% arachidonic acid (ARA) for 4 weeks. Carrageenan (1%) was used to induce hind paw edema on Day 14 (left paw) and Day 28 (right paw) of feeding. Edema was measured plethysmographically using water displacement 3 hours post-injection. Similar results were obtained on day 14. *p≦0.05.

[3] = tested on: inflammatory cytokine production; assay: Consumption of LCPUFA oils: inflammatory cytokine and eicosanoid production; type: in vivo; settings: consumption of the oil; DHA dose approximately three times higher in DHA-alone oil
Soybean 15-lipoxygenase = biological target: T1, Soybean 15-lipoxygenase (Glycine max, UniProt P08170); assay: 15-lipoxygenase reaction with fatty acid substrates (conversion to conjugated diene); type: biochemical; settings: 100 μM fatty acid, 4 μg/ml enzyme, 0.05 M sodium borate pH 9.0, 0° C, absorbance 238 nm
T1 construct: purchased Sigma-Aldrich
T1 sequence (P08170 1-839): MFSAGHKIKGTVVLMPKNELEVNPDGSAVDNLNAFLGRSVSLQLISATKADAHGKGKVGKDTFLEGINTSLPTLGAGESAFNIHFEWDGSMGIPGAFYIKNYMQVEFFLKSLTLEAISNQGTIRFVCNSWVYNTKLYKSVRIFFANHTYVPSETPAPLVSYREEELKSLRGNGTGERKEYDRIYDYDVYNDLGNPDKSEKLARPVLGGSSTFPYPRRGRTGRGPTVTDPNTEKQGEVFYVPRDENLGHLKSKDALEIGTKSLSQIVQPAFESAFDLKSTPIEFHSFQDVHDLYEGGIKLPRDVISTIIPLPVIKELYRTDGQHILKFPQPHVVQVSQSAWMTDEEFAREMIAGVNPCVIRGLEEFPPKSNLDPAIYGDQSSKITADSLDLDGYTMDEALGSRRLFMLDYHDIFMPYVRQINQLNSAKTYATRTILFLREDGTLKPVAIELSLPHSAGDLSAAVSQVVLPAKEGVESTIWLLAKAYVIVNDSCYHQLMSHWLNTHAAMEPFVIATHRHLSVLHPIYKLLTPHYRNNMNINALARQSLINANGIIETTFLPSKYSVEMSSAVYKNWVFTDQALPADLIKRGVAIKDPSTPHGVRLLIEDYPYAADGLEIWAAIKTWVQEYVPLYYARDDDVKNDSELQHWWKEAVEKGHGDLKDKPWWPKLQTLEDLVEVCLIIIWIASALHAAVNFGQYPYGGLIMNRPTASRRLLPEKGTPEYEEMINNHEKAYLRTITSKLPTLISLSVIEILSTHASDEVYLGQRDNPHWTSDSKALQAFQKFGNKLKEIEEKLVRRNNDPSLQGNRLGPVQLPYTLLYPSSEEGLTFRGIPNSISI
Experimental: Soybean 15-lipoxygenase (Sigma-Aldrich, St. Louis, Mo.) at a final concentration of 4 μg/ml was mixed into 100 μM solutions of DHA, DPAn-6, or DPAn-3 (NuChek Prep, Elysian, Minn.) in 0.05 M sodium borate buffer, pH 9.0, and the reaction mixtures were incubated at 0° C. Appearance of the mono-hydroxy conjugated diene derivatives of the fatty acids was monitored through absorbance at 238 nm. Conjugated diene products were quantified using an extinction coefficient of 28,000 M^−1 cm^−1 (Shimizu et al; Methods in Enzymology, 1990 Vol 187, 296-306). As shown in Example. 1, 100% of the DPAn-6 was efficiently converted to its conjugated diene derivative under these conditions, whereas about 85% of DPAn-3 and 50% of DHA were converted to their respective conjugated diene (mono-hydroxy) derivative by the 15-lipoxygenase. No appreciable accumulation of the dihydroxy derivatives occurred under these reaction conditions.

| Molecule | total number of cells in the pouch [1] | secretion of IL-1β in air pouch exudates (IL-1β) | secretion of MCP-1 in air pouch exudates [2] | inhibition of MCP-1 secretion versus indomethacin [2] | other results |
| --- | --- | --- | --- | --- | --- |
| 10,17-dihydroxy DPAn-6 | significant reductions | significant reductions | significant reductions | larger inhibition of MCP-1 secretion than indomethacin | reduction of IL-1β versus comparators (IL-1β; indomethacin 2 mg/kg i.p.): significantly larger than with that produced by either the DHA oxylipin derivative or indomethacin; reducing TNFα secretion by T lymphocytes, versus DHA analog (human T lymphocytes): more potent than the DHA analog |
| CCCCCC(O)/C=C/C=C\C/C=C\C/C=C\C/C=C\CCC(=O)O (centres unmarked) [17-hydroxy DPAn-6] | significant reductions | significant reductions | significant reductions | larger inhibition of MCP-1 secretion than indomethacin | potency in reducing cell infiltration versus comparators ([1]; indomethacin 2 mg/kg i.p.): more potent than both 17R-hydroxy DHA and indomethacin |
| CCCCC/C=C\C/C=C\C/C=C\C/C=C\CCCC(=O)O [ARA, arachidonic acid] | – | – | – | – | edema volume (hind paw edema): reversed the anti-inflammatory activity of DHA |
| CC/C=C\C/C=C\C/C=C\C/C=C\C/C=C\C/C=C\CCC(=O)O [DHA, docosahexaenoic acid, reference compound] | – | – | – | – | reduction in inflammatory cytokine production [3]: 13-29% |
| CC/C=C\C/C=C\C/C=C\C/C=C\C/C=C\CCCCCC(=O)O [DPAn-3, docosapentaenoic acid (C22:5n-3)] | – | – | – | – | converted to conjugated diene (mono-hydroxy) derivative by the 15-lipoxygenase (Soybean 15-lipoxygenase): about 85% |
